Read-outs that look alike come from different tables or passages of the source.
Legend:
D121 lung tumor cells = type: in vivo, C57 mice; conditions: Day 18
Protocol: 1) D121 lung tumor cells were purchased from ATCC. Cells were cultivated in DMEM culture solution containing 10% fetal bovine serum at 37° C. and 5% CO2. The cells were passaged for every three days and cells within the 15th passage were used.
(§1) 2) Tumor immunization. 5×10^5 D121 lung cancer cells (purchased from ATCC) which were killed by irradiation were intraperitoneally injected to mice. The mice were injected for 3 times, once every two weeks. After immunization, mice were injected with tumor cells and the drugs were administered weekly for 4 weeks.
3) Production of tumor. At day 32, 10^6 live lung tumor cells were subcutaneously injected to the back of the C57 mice immunized by tumor. Treatment began when the tumor grew to 0.3-0.4 cm.
as §1, with “4 weeks. In table 16 below the immune group was immuned with D121 lung tumor cells and the group without dead D121 lung tumor cells was injected with physiological saline as controls.” for “4 weeks.”
3) Production of tumor. After immunization (4 weeks later), 10^6 live lung tumor cells were subcutaneously injected to the back of the C57 mice immunized by tumor. Treatment began when the tumor grew to 0.3-0.4 cm. Tumor size (mm^3) were noted and tumor inhibition rates were calculated.
as §1, with “4 weeks. In the table below the immune group was immuned with D121 lung tumor cells and the group without dead D121 lung tumor cells was injected with physiological saline as controls.” for “4 weeks.”
3) Production of tumor. At day 32, 10^6 live D121 lung tumor cells were subcutaneously injected to the back of the C57 mice immunized by tumor. Treatment began when the tumor grew to 0.3-0.4 cm.
1) D121 lung tumor cells were purposed from ATCC. Cells were cultivated in DMEM culture solution containing 10% fetal bovine serum at 37° C. and 5% CO2. The cells were passaged for every three days and cells within the 15th passage were used.

[1] = system: Human breast cancer MDA-MB231 cells; type: in vivo, nude mice; conditions: MDA-MB231, nude mice, IV 13.2 μmol/kg once weekly for four weeks
Protocol: (§2) 1) Human breast cancer MDA-MB231 cells were purchased from American type culture collection (ATCC) and identified according the specification provided by ATCC. Cells were cultivated in Dulbecco's minimum essential medium (DMEM culture medium) containing 10% fetal bovine serum at 37° C. and 5% CO2. The cells were passaged for every three days and cells within the 15th passage were used.
2) Production of tumor. 5×10^6 MDA-MB231 cells were subcutaneously injected to the back of the nude mice. Mice were randomly grouped after the tumor reached at least 100 mm^3. Then treatment began and the day on which the treatment began was day 1.
3) Course of treatment. […] The drugs were administered once weekly for four weeks.
When R1 is 2-(2-Methoxyethoxy)Acetyl, and R3 is Ala, activation study and efficacy study were carried out by using compounds having different cleavable linker. The study methods are identical to those in Examples 10, 11 and 12. The in vitro activation efficiency was tested by asparagine endopeptidase and the tumor inhibition rate was tested by using human breast cancer MDA-MB231 model. […]

tumor CD8+ T cells = type: in vivo, C57 mice
Protocol: (§3) 4) Analysis on tumor CD8+ T cells. The tumor tissue was homogenated and individual cells in the tumor were filtered, separated and washed by buffer twice, then cultivated with the leucocyte common antigen CD45-PE and CD8-FITC marked antibodies for 1 hour at ambient temperature. The cells were washed by phosphate buffer containing 1% fetal bovine serum twice and then analyzed for the ratio of the T lymphocyte antigen (CD8) positive cells in the leucocyte common antigen (CD45) positive cells by flow cytometry.
as §3, with “CD45-PE and T-lymphocyte antigen CD8-FITC marked” for “CD45-PE and CD8-FITC marked”, “flow cytometry. Increasement of the ratio indicates increased T lymphocyte cells and thus the animal immunity against the tumor was improved.” for “flow cytometry.”
as §3, with “cytometry. Increasement of the ratio indicates increased T lymphocyte cells and thus the animal immunity against the tumor was improved.” for “cytometry.”

[2] = system: Human prostate cancer PC-3 cells / Panc-1 cells; experiment: Tumor treatment in nude mice (PC-3 cells purchased, Panc-1 cells injected; Examples 22, 32, 42); type: in vivo; conditions: Table 38, nude mice, IV once weekly for four weeks, B1-B4 25 mg/kg, Docetaxel […]
Protocol: as §2, with “prostate” for “breast”, “PC-3” for “MDA-MB231”, “DMEM” for “Dulbecco's minimum essential medium (DMEM”, “solution” for “medium)”
2) Production of tumor. 5×10^6Panc-1 cells were subcutaneously injected to the back of the nude mice. Mice were randomly grouped after the tumor reached at least 100 mm^3. Then treatment began and the day on which the treatment began was day 1.
The control group was administered by physiological saline. Drugs were administered once weekly for four weeks.
According to the clinical application of B1, B2, B3 and B4, drugs were intravenously injected (IV). […] The control group was administered by physiological saline. Drugs were administered once weekly for four weeks.

[3] = system: Human prostate cancer PC-3 cells; experiment: Tumor treatment in nude mice, PC-3 model (Example 51); type: in vivo; conditions: Table 48, nude mice, PC-3, IV once weekly for four weeks, D1-D4 25 mg/kg, Docetaxel […]
Protocol: as §2, with “prostate” for “breast”, “PC-3” for “MDA-MB231”, “DMEM” for “Dulbecco's minimum essential medium (DMEM”, “solution” for “medium)”
2) Production of tumor. 5×10^6PC-3 cells were subcutaneously injected to the back of the nude mice. Mice were randomly grouped after the tumor reached at least 100 mm^3. Then treatment began and the day on which the treatment began was day 1.
According to the clinical application of D1, D2, D3 and D4, drugs were intravenously injected (IV). […]. The control group was administered by physiological saline. Drugs were administered once weekly for four weeks.

4T1 cells = experiment: BALB/C mice model for tumor metastasis (4T1, lung metastases); type: in vivo; conditions: BALB/C mice, 4T1, lung metastases day 27, IV every three days for 4 times
Protocol: as §2, with “4T1” for “Human breast cancer MDA-MB231”, “DMEM” for “Dulbecco's minimum essential medium (DMEM”, “solution” for “medium)”
2) Production of tumor metastasis. 10^6 […] were subcutaneously injected to the back of the BALB/C mice. Mice were randomly grouped after the tumor grew to about 1.5 cm. The subcutaneous tumor was removed by surgery and drug treatment began. Mice were killed after anesthesia on day 27. The whole lung was taken out and put into Bouin's solution for staining. The number of the tumor metastasized to lung was counted with anatomical microscope.
(§4) The control group was administered by physiological saline. Drugs were administered once for every three days for 4 times.
as §4
According to the clinical application of B1, B2, B3 and B4, drugs were intravenously injected (IV). […] The control group was administered by physiological saline. Drugs were administered once for every three days for 4 times.
According to the clinical application of D1, D2, D3 and D4, drugs were intravenously injected (IV). […] The control group was administered by physiological saline. Drugs were administered once for every three days for 4 times.

[4] = D121 immunized C57 mice, 13.2 μmol/kg weekly, PDL1 antibody 5 μg/kg where combined
[5] = D121 immunized C57 mice, 13.2 μmol/kg, ratio of CD8 positive cells in CD45 positive cells of tumor
[6] = Table 39, immunized C57 mice, D121, drugs 13.2 μmol/kg, PDL1-antibody 5 μg/kg, weekly for 4 weeks
[7] = Table 49, immunized C57 mice, D121, drugs 13.2 μmol/kg, PDL1 antibody 5 μg/kg, weekly for 4 weeks
[8] = Table 40, B1-B4 17.6 μmol/kg, Docetaxel 3 μmol/kg
[9] = Table 50, D1-D4 25 mg/kg, Docetaxel 4.2 mg/kg

Compound | Inhibitory rate on tumor Day 18 (D121 lung tumor cells; [4]) | Size of tumor (mm^3) Day 18 (D121 lung tumor cells; [4]) [mm^3] | Inhibitory rate on tumor (%) Day 10 [1] [%] | Size of tumor (mm^3) Day 10 [1] [mm^3] | Inhibitory rate on tumor (%) Day 24 [1] [%] | Size of tumor (mm^3) Day 24 [1] [mm^3] | CD8: D45 (%) (tumor CD8+ T cells; [5]) | other results
CC[C@@]1(O)C(=O)OCc2c1cc1n(c2=O)Cc2cc3ccccc3nc2-1 [camptothecin] | 34.47 | 889.56 ± 148.56 | 15 | 258.45 ± 57.43 | 19 | 847.46 ± 157.56 | – | CD8: CD45 (%) (tumor CD8+ T cells; [5]): 13.2%
CCCCCOC(=O)Nc1nc(=O)n([C@@H]2O[C@H](C)[C@@H](O)[C@H]2O)cc1F [capecitabine] | 29.75 | 953.65 ± 245.43 | 26 | 225.53 ± 74.45 | 9 | 946.43 ± 275.86 | 13.6 | –
COc1cccc2c1C(=O)c1c(O)c3c(c(O)c1C2=O)C[C@@](O)(C(C)=O)C[C@@H]3O[C@H]1C[C@H](N)[C@H](O)[C@H](C)O1 [daunorubicin] | 21.63 | 1063.86 ± 317.56 | 43 | 174.78 ± 78.43 | 17 | 864.01 ± 67.45 | 13.2 | –
Docetaxel [reference compound] | – | – | – | – | – | – | – | Size of tumor (mm^3) Day 10 ([2]; Day 10): 254.75 ± 146.55 mm^3; inhibitory rate on tumor Day 10 ([2]; Day 10): 11.1; Size of tumor (mm^3) Day 24 ([2]; Day 24): 263.65 ± 184.67 mm^3; inhibitory rate on tumor Day 24 ([2]; Day 24): 30.7; Size of tumor (mm^3) Day 10 ([3]; Day 10): 168.66 ± 79.43 mm^3; inhibitory rate on tumor Day 10 ([3]; Day 10): 51.3; Size of tumor (mm^3) Day 24 ([3]; Day 24): 313.75 ± 157.42 mm^3; inhibitory rate on tumor Day 24 ([3]; Day 24): 57.3; Size of tumor (mm^3) Day 18 (D121 lung tumor cells; [6]): 1242.30 ± 359.48 mm^3; inhibitory rate on tumor % Day 18 (D121 lung tumor cells; [6]): 23.33%; Size of tumor (mm^3) Day 18 (D121 lung tumor cells; [7]): 1268.64 mm^3; inhibitory rate on tumor % Day 18 (D121 lung tumor cells; [7]): 11.0%; CD8: CD45 (%) (tumor CD8+ T cells; Table 39, CD8 positive cells in CD45 positive cells of tumor, flow cytometry, drugs 13.2 μmol/kg, PDL1-antibody 5 μg/kg): 5.4%; CD8: CD45 (%) (tumor CD8+ T cells; Table 49, CD8 positive cells in CD45 positive cells of tumor, flow cytometry, drugs 13.2 μmol/kg, PDL1 antibody 5 μg/kg): 6.9%; Inhibitory rate on metastasis (4T1 cells; [8]): 32.5; Number of metastasized tumor (4T1 cells; [8]): 85 ± 17; Inhibitory rate on metastasis (4T1 cells; [9]): 89.7; Number of metastasized tumor (4T1 cells; [9]): 156 ± 24
